Test results reported in patent US10385034B2, “Flavonoid IL-17A inhibitors” (THE CLEVELAND CLINIC FOUNDATION, priority 2014, dated 2019).
“Also recorded” adds a separate entry of the source.

Columns and labels:
IL-17A-IL-17RA binding = target: T1, IL-17A-IL-17RA binding (Homo sapiens, UniProt Q96F46); test: IL-17A-IL-17RA binding assay (ELISA); details: serial dilutions of compound
T1 construct: human IL-17RA-Fc (extracellular domain 1-322 AA fused with Fc region of human IgG1 at the C-terminus); purchased Sino Biological Inc
Protocol: IL-17A-IL-17RA binding assay. ELISA plates were coated with human IL-17A or IL-17E (2 μg/ml in PBS). Human IL-17RA-Fc or human IL-17RB-Fc (150 ng/ml) were added and incubated for 1 h, followed by incubation with human HRP-conjugated anti human IgG Fc secondary antibody for 1 h. ELISA were finally developed using tetramethylbenzidine substrate.

IL-17RA ECD = target: T2, IL-17RA ECD (Homo sapiens, UniProt Q96F46); test: Surface plasmon resonance (Biacore) binding to immobilized IL-17RA; details: SPR, IL-17RA immobilized on CM5 chip
T2 construct: using purified the extracellular domain (ECD) of human IL-17RA
Protocol: Surface plasmon resonance (SPR). Binding of A18 to IL-17RA was conducted on Biacore T100 instrument. Purified IL-17RA was immobilized on CM5 sensor chip using amine coupling kit (GE healthcare). A18 of different concentrations were flown over the chip in PBSPP+ buffer (20 mM Phosphate, 2.7 mM KCl, 137 mM NaCl and 0.05% P20, pH 7.4). The chip was regenerated with 2M GnHCl. Binding KD was determined by Biaevaluation software.

[1] = tested on: human mammary epithelial cells (HMEC); test: IL-17A-induced CXCL1 (Groα) production, ELISA; format: cell-based; details: IL-17 100 ng/ml, 24 h
Source text: (§1) Reagents, cell culture and mice. Purified proteins of human IL-17A, human IL-17E (IL-25), human IL-17RA-Fc (extracellular domain 1-322 AA fused with Fc region of human IgG1 at the C-terminus), human IL-17RB-Fc (extracellular domain 1-289 AA fused with Fc region of human IgG1 at the C-terminus), human horseradish peroxidase (HRP)-conjugated IgG Fc secondary antibody were purchased from Sino Biological Inc. Human and mouse IL-17A and mouse IL-23 used for cell culture and animal injection were purchased from R&D Systems. Human mammary epithelial cells were maintained in Medium 171 plus mammary epithelial growth supplement (MEGS) purchased from Invitrogen, which contain bovine pituitary extract (BPE) (0.4% v/v), recombinant human insulin-like growth factor-I (1 μg/ml), hydrocortisone (0.5 μg/ml) and human epidermal growth factor (3 ng/ml). A549 cells were maintained in RPMI supplemented with 10% FCS and 100 U/ml penicillin and 100 μg/ml streptomycin. All mice were obtained from Jackson laboratory.
(§2) ELISA. Groα and IL-17A levels were assayed by ELISA kits (R&D systems) according to the manufacturer's instruction.

A549 cells = test: IL-17A-induced CXCL1 (Groα) production, ELISA; format: cell-based, human; details: A549, IL-17 100 ng/ml, 24 h
Source text: as §1, §2

[2] = tested on: IL-17F-induced gene expression; test: IL-17F-induced gene expression in epithelial cells; format: cell-based, human; details: data not shown
[3] = tested on: IL-17A-induced gene expression in lung tissue; test: Intranasal injection of IL-17A (lung inflammation); format: in vivo; details: BALB/c mice, A18 4 μg per mouse intranasal with IL-17A 1 μg, 4 h
Protocol: Intranasal injection of IL-17A. Eight-week WT BALB/cJ female mice were subjected to intranasal injection of PBS, 1 μg of IL-17A with or without A18 (4 μg per mouse). […]
(§3) Real-time PCR. Total RNA was extracted from spinal cords and cultured astrocytes with TRIzol (Invitrogen) according to the manufacturer's instructions. All gene expression results are expressed as arbitrary units relative to expression of the gene encoding beta-actin.

HFD-induced AHR = test: High-fat-diet-induced airway hyperreactivity; format: in vivo; details: A18 30 μg per mouse i.p., last 10 days of HFD
Protocol: High-fat-diet intervention. Starting at 4 weeks of age, WT C57BL/6 male mice were fed with 10 kcal % fat chow diet (CD) or a 60 kcal % HFD for 14 weeks. HFD+A18 group of mice were i.p. injected with A18 (30 μg per mouse) daily for 10 days before subjection to AHR measurement. Both CD (D12450B) or HFD (D12492) were obtained from Research Diets, Inc. Measurement of AHR. AHR was measured in mice in response to increasing doses of inhaled methacholine. Mice were anesthetized with i.p. pentobarbital sodium (60 mg/kg). After the intubation and the placement of a 19-gauge cannula through a tracheotomy incision, the cannula was affixed with a silk suture ligation. Mice were connected to a computer-controlled piston ventilator run at a rate of 150 breaths/min, a tidal volume of 0.2 ml, and a positive end-expiratory pressure of 2-3 cm H2O (Flexivent). Mice were then administered a muscle relaxant (pancuronium bromide, 800 mg/kg), and the lungs were expanded twice to total lung capacity at an amplitude pressure of 30 cm H2O. […] Lung resistance (RL) was obtained through forced oscillation technique by FlexiVent 5.2 (Flexivent; Scireq) software. Real-time PCR. […] All gene expression results are expressed as arbitrary units relative to expression of the gene encoding beta-actin.

Th17-mediated EAE = test: Adoptive transfer of EAE by Th17; format: in vivo, mouse
Protocol: Adoptive transfer of EAE by Th17. To prepare MOG-specific polarized Th17 cell populations, drain lymph node cells were prepared from 10-week WT C57BL/6 female mice immunized with MOG 35-55 at day 10 postimmunization. Cells were cultured for 5 days with MOG 35-55 at a concentration of […] under Th17 cell (20 ng/ml IL-23) polarizing condition. For induction of Th17-mediated EAE, 10-week WT C57BL/6J female mice were injected i.p. with 3.0×10^7 polarized MOG 35-55-specific Th17 cells/mouse with or without A18 (30 μg per mouse) 4 h after 500 Rad sublethal irradiation. A18 (30 μg per mouse) was continuously administered i.p. to the treated mice every other day after Th17 injection. At the peak of disease, the mice were sacrificed and perfused with PBS. The spinal cords were fixed in 10% formalin for staining with H&E. The Brains were removed for isolation of infiltrating cells.
Isolation and analysis of inflammatory cells from brain. Brains were homogenized in ice-cold tissue grinders and filtered through a […] cell strainer, and the cells were collected by centrifugation at 400 g for 5 min at 4° C. Cells were resuspended in 10 ml of 30% Percoll (Amersham Bioscience) and centrifuge onto a 70% Percoll cushion in 15 ml tubes at 800 g for 30 min. Cells at the 30%-70% interface were collected and were subjected to flow cytometry. Fluorescence-conjugated CD4, CD8, CD45, Ly6G1 antibodies and isotype controls were purchased from BD Biosciences. F4/80 was obtained from Serotech.
as §3

D4M melanoma cells = test: Experimental melanoma lung metastasis; format: in vivo; details: C57BL/6, 1×10^6 D4M cells tail vein, A18 60 μg/mouse daily, day 20
Protocol: Melanoma pulmonary metastasis is indicative of poor prognosis. The experimental lung metastasis has been used to test the ability of tumor cell migration, growth at distant sites, effects of drugs for treatment of lung metastasis. In this model, melanoma cells are injected through tail vein, and metastatic lesions can be established in the lung after 2-3 weeks. Here we used this experimental lung metastasis model to test the possible impact of A18 on melanoma re-establishment at distant lung tissue. […] melanoma cells (Jenkins et al., Pigment cell & melanoma research 27, 495-501 (2014)), (1×10^6 cells) were injected into C57BL/6 mouse through tail vein. The control group mice were injected with 200 μl PBS daily, the other group mice were injected with 60 μg A18/mouse daily. The Histological sections were obtained from lung tissue at day 20.

[4] = A18 30 μg per mouse i.p. every other day

T1 sequence (Q96F46 33-322): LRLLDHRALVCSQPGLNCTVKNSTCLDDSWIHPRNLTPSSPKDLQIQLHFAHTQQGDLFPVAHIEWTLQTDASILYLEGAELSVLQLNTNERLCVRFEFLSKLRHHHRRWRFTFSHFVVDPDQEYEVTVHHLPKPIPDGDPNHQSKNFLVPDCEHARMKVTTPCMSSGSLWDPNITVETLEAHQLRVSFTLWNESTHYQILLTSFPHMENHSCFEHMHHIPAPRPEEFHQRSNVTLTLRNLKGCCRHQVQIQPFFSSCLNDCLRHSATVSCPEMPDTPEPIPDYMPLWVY
T2 sequence (Q96F46 33-320 limits assumed): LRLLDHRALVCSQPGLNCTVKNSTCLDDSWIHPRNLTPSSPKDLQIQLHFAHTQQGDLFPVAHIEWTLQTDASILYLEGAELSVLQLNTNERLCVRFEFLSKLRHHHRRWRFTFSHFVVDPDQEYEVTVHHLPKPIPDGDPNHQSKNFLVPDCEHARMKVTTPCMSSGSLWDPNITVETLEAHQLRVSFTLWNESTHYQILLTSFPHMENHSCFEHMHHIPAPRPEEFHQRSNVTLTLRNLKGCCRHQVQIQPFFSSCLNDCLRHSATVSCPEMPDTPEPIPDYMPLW

`Oc1cc(O)c2cc(O)c(-c3ccc(O)c(O)c3)[o+]c2c1.[Cl-]` [A18, 2-(3,4-Dihydroxyphenyl)-3,5,7-trihydroxy-1-benzopyrylium chloride] was tested. Which “Inhibition of IL-17A-IL-17RA binding” value (IL-17A-IL-17RA binding) did it give?
The value was “excellent inhibition efficacy; also recorded: great inhibition efficacy”.

What about the Kd (IL-17RA ECD) of the same compound?
The Kd was 225 nM.

What about the “IL-17A-mediated CXCL1 production” value [1] of the same compound?
The value was “greatly inhibited”.

And the “IL-17A-mediated CXCL1 production” value (A549 cells)?
Its value is “greatly inhibited”.

And the IL-17F-induced gene expression [2]?
The IL-17F-induced gene expression was “able to block”.

What about the “IL-17A-induced gene expression in lung” value [3] of the same compound?
Its value is “greatly inhibited”.

And the “HFD-induced AHR” value (HFD-induced AHR; C57Bl/6 mice)?
Its value is “substantially attenuated”.

What about the “HFD-induced inflammatory gene expression in lung” value (HFD-induced AHR; C57Bl/6 mice) of the same compound?
The value was “substantially attenuated”.

And the “HFD-induced production of IL-17A in the lung” value (HFD-induced AHR; cultured lung cells)?
Its value is “no impact”.

What about the EAE disease severity (Th17-mediated EAE; [4]) of the same compound?
The EAE disease severity was “attenuated”.

And the “Expression of IL-17-responsive inflammatory genes (CXCL1, IL6, GMCSF, Ccl20) in spinal cords” value (Th17-mediated EAE; [4])?
Its value is “greatly reduced”.

What about the “Onset of EAE” value (Th17-mediated EAE; [4]) of the same compound?
Its value is “substantially delayed”.

And the “Infiltrated cells in spinal cords” value (Th17-mediated EAE; H&E staining)?
The value was “less infiltrated cells”.

And the “Infiltration of CD4+, CD8+ T cells and F4/80+ macrophages” value (Th17-mediated EAE; brain, flow cytometry)?
Its value is “did not affect”.

And the “Recruitment of Ly6G+ neutrophils” value (Th17-mediated EAE; brain, flow cytometry)?
The value was “substantially reduced”.

And the Lung metastasis tumors (D4M melanoma cells)?
Its Lung metastasis tumors is “Fewer and smaller”.
